Assay results: PMC13203959, “New inhibitors of the Pseudomonas aeruginosa enzyme, PqsE, and methods assessing their potential to induce a conformational change via active site binding” (mSphere, 2026)
pIC50: −log10 of the molar value. Read-outs that look alike come from different tables or passages of the source.

How the values were obtained:
PqsE(WT) [1] = target: T1, PqsE(WT) (Pseudomonas aeruginosa, UniProt P20581); assay: Esterase assay: inhibition of PqsE-catalyzed MU-butyrate hydrolysis; type: biochemical
T1 construct: 6xHis (N); made in house; host or cells: E. coli BL21 (DE3)
Procedure: Purified PqsE, diluted in assay buffer (50 mM Tricine, 0.01% Triton X-100, pH 8.5), was added to the wells of an opaque 384-well plate at a final concentration of 125 nM. Test molecules were diluted in DMSO and added to the wells at the indicated concentrations (5% DMSO final). The plate was then incubated at room temperature for 5 min. MU-butyrate in assay buffer was added to the plate at a final concentration of 2 µM. The plate was incubated at room temperature for 20 min prior to measuring fluorescence (excitation: 360 nm and emission: 450 nm) to monitor the hydrolysis of MU-butyrate. All data were plotted in the Prism 9.0 program, and IC50 values were calculated from inhibition curves fit to the data.

PqsE(WT) [2] = target: T1, PqsE(WT); assay: Differential scanning fluorimetry (DSF), PqsE(WT); type: binding; conditions: PqsE(WT) 2 µM, compound 100 µM
Procedure: Compounds HJ1, HJ2, and HJ5 were tested for the ability to bind and shift the Tm of purified PqsE and PqsE variants using DSF as described previously with some modifications ([18]). Briefly, compounds in DMSO were diluted in assay buffer (50 mM Tris, 150 mM NaCl, 200 µM MnCl2, pH 8) to achieve a final concentration of 100 µM (1% DMSO). Compound solutions were transferred to the wells of a 96-well PCR plate (ThermoFisher), and control wells were prepared with 1% DMSO (negative control). SYPRO Orange Dye and PqsE solutions were diluted in assay buffer and subsequently added to the wells to reach final concentrations of 7× SYPRO Orange and 2 µM PqsE. Final volume in each well was 80 µL. Plates were sealed with transparent optical adhesive covers (ThermoFisher) prior to measurement of SYPRO Orange fluorescence (ex, 580 nm; em, 623 nm) in a QuantStudio 3 Real-Time PCR system (ThermoFisher) over an increasing temperature gradient from 25 to 90°C (temperature increased at a rate of 0.1°C/s). Tm was determined from first derivative plots of the raw fluorescence curves using the Prism 9.0 software.

PqsE(E280A) = target: T2, PqsE(E280A) (Pseudomonas aeruginosa, UniProt P20581, E280A); type: binding; conditions: PqsE(E280A) 2 µM, compound 100 µM
T2 construct: made in house

PqsE(E182W) = target: T3, PqsE(E182W) (Pseudomonas aeruginosa, UniProt P20581, E182W); type: binding; conditions: PqsE(E182W) 2 µM, compound 100 µM
T3 construct: made in house

PqsE(E182W/E280A) = target: T4, PqsE(E182W/E280A) (Pseudomonas aeruginosa, UniProt P20581, E182W/E280A); type: binding; conditions: PqsE(E182W/E280A) 2 µM, compound 100 µM
T4 construct: made in house

PqsE(S285W) [3] = target: T5, PqsE(S285W) (Pseudomonas aeruginosa, UniProt P20581, S285W); type: binding; conditions: compound 100 µM; for Tm of PqsE-HJ complex / ∆Tm, shift in melting temperature vs DMSO-treated control: PqsE(S285W) 2 µM
T5 construct: 6xHis (N); made in house; host or cells: E. coli BL21 (DE3)

PqsE(S285A) [4] = target: T6, PqsE(S285A) (Pseudomonas aeruginosa, UniProt P20581, S285A); assay: Differential scanning fluorimetry (DSF), PqsE(S285A); type: binding; conditions: compound 100 µM; for Tm of PqsE-HJ complex / ∆Tm, shift in melting temperature vs DMSO-treated control: PqsE(S285A) 2 µM
PqsE(E182A) = target: T7, PqsE(E182A) (Pseudomonas aeruginosa, UniProt P20581, E182A); type: binding; conditions: PqsE(E182A) 2 µM, compound 100 µM
T7 construct: made in house

PqsE(S285D) = target: T8, PqsE(S285D) (Pseudomonas aeruginosa, UniProt P20581, S285D); type: binding; conditions: PqsE(S285D) 2 µM, compound 100 µM
T8 construct: made in house

PqsE(S285Y) = target: T9, PqsE(S285Y) (Pseudomonas aeruginosa, UniProt P20581, S285Y); type: binding; conditions: PqsE(S285Y) 2 µM, compound 100 µM
T9 construct: made in house

PqsE(S285A) [5] = target: T6, PqsE(S285A); assay: Esterase assay: inhibition of MU-butyrate hydrolysis by PqsE(S285A); type: biochemical
PqsE(S285W) [6] = target: T5, PqsE(S285W); type: biochemical; conditions: esterase assay
[7] = system: wild-type P. aeruginosa PA14; assay: Pyocyanin assay, wild-type strain; type: cell-based, Pseudomonas aeruginosa; conditions: WT strain, ~17 h
Procedure: P. aeruginosa PA14 cultures were grown overnight in LB at 37°C with shaking. The saturated cultures were then diluted 1:1,000 into fresh LB containing test molecules in DMSO (final 1% DMSO). Cultures then grew for ~17 h at 37°C with shaking at 200 rpm. Next, 1 mL of each culture was collected and pelleted by centrifugation at 13,000 rpm for 3 min. The supernatant was carefully transferred to a cuvette, and the OD695 was measured in a Genesys 20 ThermoSpectronic spectrophotometer. The cell pellet was resuspended in 1 mL of PBS and then transferred into the wells of a clear 96-well plate at 100 µL per well. The OD600 was measured to assess cell density. Pyocyanin production (OD695) of the supernatants was normalized to cell density (OD600 of the resuspended cell pellets).

PqsE-RhlR interaction = target: T10, PqsE-RhlR interaction (Pseudomonas aeruginosa, UniProt P20581); assay: PqsE-RhlR in vitro pull-down; type: binding; conditions: up to 100 µM, 1 µM 6xHis-PqsE(WT), RhlR-containing lysate
T10 construct: made in house; host or cells: Escherichia coli (PqsE purified; RhlR as crude lysate from a pET23a-rhlR strain grown with mBTL)
Procedure: RhlR was expressed following a previously established method ([18], [19]). Briefly, lysate was prepared from cultures of an Escherichia coli strain carrying rhlR on a pET23a plasmid that had been treated with the RhlR-solubilizing ligand, mBTL ([33]). The pull-down assay was conducted following a previously established method with some modifications ([18]). Briefly, purified 6xHis-PqsE(WT) was incubated with test molecules at the specified concentrations for 10 min at room temperature. The treated PqsE was then added to 100 µL of RhlR-containing lysate in lysis buffer (50 mM Tris-HCl, 150 mM NaCl, 20 mM imidazole, pH = 8.0) to a total final volume of 150 µL and a final PqsE concentration of 1 µM (final 0.6% DMSO). The mixtures were incubated at 4°C with rotation for 30 min before MagneHis Ni resin (Promega) was added (10 µL of settle volume), and incubation at 4°C with rotation was continued for 1 h. The Ni resin was then washed three times with lysis buffer, and then PqsE complexes were eluted with 50 µL elution buffer (50 mM Tris-HCl, 150 mM NaCl, 500 mM imidazole, pH = 8.0). The eluted proteins were then denatured in Laemmli sample buffer at 95°C and analyzed by SDS-PAGE.

PqsE(WT) [8] = target: T1, PqsE(WT); conditions: 10 min trypsin

SMILES	Tm of PqsE-HJ complex (PqsE(WT) [2])	∆Tm, shift in melting temperature vs DMSO-treated control (PqsE(WT) [2])	Tm of PqsE-HJ complex (PqsE(E280A))	∆Tm, shift in melting temperature vs DMSO-treated control (PqsE(E280A))	Tm of PqsE-HJ complex (PqsE(E182W))	∆Tm, shift in melting temperature vs DMSO-treated control (PqsE(E182W))	Tm of PqsE-HJ complex (PqsE(E182W/E280A))	∆Tm, shift in melting temperature vs DMSO-treated control (PqsE(E182W/E280A))	Tm of PqsE-HJ complex (PqsE(S285W) [3])	∆Tm, shift in melting temperature vs DMSO-treated control (PqsE(S285W) [3])	Tm of PqsE-HJ complex (PqsE(S285A) [4])	∆Tm, shift in melting temperature vs DMSO-treated control (PqsE(S285A) [4])	Tm of PqsE-HJ complex (PqsE(E182A))	∆Tm, shift in melting temperature vs DMSO-treated control (PqsE(E182A))	Tm of PqsE-HJ complex (PqsE(S285D))	∆Tm, shift in melting temperature vs DMSO-treated control (PqsE(S285D))	Tm of PqsE-HJ complex (PqsE(S285Y))	∆Tm, shift in melting temperature vs DMSO-treated control (PqsE(S285Y))	other results
CC(C)(C)CNC(=O)Nc1ccc(NC(=O)c2cccc3cn[nH]c23)cc1 [BB584, reference compound]	–	–	–	–	–	–	–	–	–	–	–	–	–	–	–	–	–	–	pIC50 (PqsE(WT) [1]; 125 nM PqsE, 2 µM MU-butyrate, pH 8.5, read-out: IC50, inhibition of PqsE enzyme function (MU-butyrate hydrolysis)): 6.97
Cc1n[nH]c2c(C(=O)Nc3ccc(NC(=O)OC(C)(C)C)cc3)cccc12 [HJ2]	67.7 °C	0.74 °C	67.1 °C	0.61 °C	73.9 °C	0.48 °C	70.0 °C	0.20 °C	66.8 °C	0.07 °C	67.9 °C	0.61 °C	69.2 °C	-0.47 °C	67.0 °C	0.14 °C	68.2 °C	0.41 °C	inhibitory activity on enzymatic activity of PqsE (PqsE(WT) [1]; esterase assay, dilution series): virtually no effect
Cc1ccc(C(=O)Nc2ccc(NC(=O)OC(C)(C)C)cc2)c2[nH]ncc12 [HJ5]	68.8 °C	1.82 °C	67.7 °C	1.21 °C	75.5 °C	2.05 °C	71.9 °C	2.12 °C	67.5 °C	0.74 °C	68.6 °C	1.35 °C	70.6 °C	1.00 °C	67.3 °C	0.48 °C	68.2 °C	0.40 °C	pIC50 (PqsE(WT) [1]): 6.42; maximum level of inhibition of PqsE(WT) (PqsE(WT) [1]; % inhibition): ~ 50%; increase of IC50 against PqsE(S285A) variant versus PqsE(WT) (PqsE(S285A) [5]; 20 min): approximately 10 fold; maximum level of inhibition of PqsE(S285A) (PqsE(S285A) [5]; % inhibition): approximately 10%; effect of S285W substitution on binding/inhibition (PqsE(S285W) [6]): completely abrogated binding; significance of shift in Tm compared to HJ2 (PqsE(S285W) [3]; PqsE(S285W)): neither HJ1 nor HJ5 induced significant shifts in Tm; significance of shift in Tm compared to HJ2 (PqsE(S285A) [4]; PqsE(S285A)): neither HJ1 nor HJ5 induced significant shifts in Tm; decrease in pyocyanin production compared to DMSO-treated WT strain ([7]; 100 µM): ~ 37%; inhibition at 50 µM ([7]; Pseudomonas aeruginosa, PA14, 50 µM, read-out: inhibition of pyocyanin production compared to DMSO-treated WT strain): ~30%; effect on PqsE-RhlR complex formation (PqsE-RhlR interaction): neither HJ1 nor HJ5 showed any effect on complex formation; band intensity of undigested protein (band 1) after trypsin exposure (PqsE(WT) [8]; increasing concentrations up to 100 µM): increases as the concentration of HJ5 increases; induction of PqsE(E182W)-like banding pattern (conformational change) upon tryptic digest (PqsE(WT) [8]; up to 100 µM, 10 µM PqsE(WT)): did not produce a banding pattern similar to that of PqsE(E182W)
